Experimental data: patent US12485073B2, “Oral care compositions and methods of use” (Colgate-Palmolive Company, priority 2019, dated 2025)

Columns and labels:
[1] = 1H NMR analysis of MeSA hydrolysis in aqueous alkaline solution; type: physicochemical; conditions: for ester hydrolysis: with or without Gly at pH 9.0, within 48 hours (FIG. 4); for effect of added amino acid or derivative on MeSA hydrolysis rate: pH 9.0, aqueous solution (FIG. 4, 7, 8)
Text: Direct detection and quantification of MeSA in aqueous solution is challenging due to its low water solubility. While ^1H NMR provides structural and quantitative information of the specific substrate in the aqueous mixture, the greatest limitation of NMR is its poor sensitivity. […] Typically, a high concentration of substrate is needed for NMR quantitative analysis. However, to quantify a substrate by NMR at concentrations at or below about 0.1 wt. % in water is not possible without effective solvent suppression. To overcome this hurdle, composite n/2 pulses were applied prior to pre-saturation pulses to effectively suppress the water peak of the sample.
Studies were conducted to test how pH affects MeSA hydrolysis.
Next, the phenolic hydroxyl group was examined to test whether it affects hydrolysis of MeSA at basic pH. The hydrolysis of two analogue compounds, namely, methyl benzoate and methyl paraben were studied as comparators.
The t-butyloxycarbonyl (BOC) and methyl ester groups are routinely used in peptide synthesis to protect amine and carboxyl group of amino acid from reaction.

[2] = Methyl salicylate concentration versus pH in presence of arginine, UV/Vis (FIG. 9); type: physicochemical
Text: As shown, degradation of methyl salicylate can be substantially mitigated even in the presence of an amino acid under accelerated aging conditions. A curve for the relationship between pH and the above compositions is illustrated in FIG. 9.

Row | SMILES | ester hydrolysis [1] | effect of added amino acid or derivative on MeSA hydrolysis rate [1] | further results
1 | COC(=O)c1ccccc1O [MeSA, Methyl salicylate] | significant hydrolysis |  | reduction of peak intensity of the methyoxy group of MeSA ([1]; after 12 hr hydrolysis, 0.05 wt % MeSA + 0.025 wt % glycine, pH 9.0, 25° C.): about 30%; degradation of MeSA concentration (hydrolysis rate) as solution is more basic ([1]; water without amino acid, pH range 8 to 11.5 (FIG. 3)): becomes faster; MeSA hydrolysis ([1]; with Gly at pH 7.0): drastically reduced; MeSA degradation ([2]; pH 7.5): dramatically increases; preservation of MeSA ([2]; pH at 6.5 or 7.0): good preservation
2 | COC(=O)CN [Gly methyl ester, reference compound] |  | slightly faster than that of MeSA only | 
3 | COC(=O)c1ccc(O)cc1 [methyl paraben, reference compound] | no ester hydrolysis |  | 
4 | NCCCC[C@H](N)C(=O)O [lysine] |  | accelerate the degradation of MeSA | 
5 | COC(=O)CNC(=O)OC(C)(C)C [Boc-Gly methyl ester, reference compound] |  | significantly reduces to the same level as that of MeSA without Gly | 
6 | COC(=O)c1ccccc1 [methyl benzoate, reference compound] | no ester hydrolysis |  | 
7 | CC(C)(C)OC(=O)NCC(=O)O [Boc-Gly-OH, reference compound] |  | much faster than that of MeSA alone | 
